{"source": "patent US5939403A", "about": "“Keratan sulfate oligosaccharide fraction and pharmaceutical containing the same” (Seikagaku Corporation, priority 1994, dated 1999)", "key": {"submandibular lymph node": {"tested_on": "submandibular lymph node", "assay": "Observation of apoptic body in submandibular lymph node sections (HE staining)", "type": "in vivo, MRL-lpr/lpr mice", "conditions": "any dose (1, 5, 25 mg/kg i.m.), four weeks"}, "carrageenin pleurisy": {"tested_on": "carrageenin pleurisy", "assay": "Carrageenin pleurisy model", "type": "in vivo, Female S.D. rats", "conditions": "six hours", "procedure": "The effect of the keratan sulfate oligosaccharide was examined with the carrageenin pleurisy model of rats which is generally used for evaluation of anti-inflammatory agents.\nFemale S.D. rats (n=37) of about 150 to 170 g weight were used for the test. The λ-carrageenin (Sigma) was dissolved in saline to a concentration of 2%, and the solution was filtered with a 0.8 μm filter. The carrageenin solution obtained was intrathoracically administered at 100 μl/animal to prepare the pleurisy model.\nTo the pleurisy model of rats (n=19) described above, the keratan sulfate tetrasaccharide (I) dissolved in PBS was subcutaneously (s.c.) administered in 20 mg/kg or 10 mg/kg dose. And as the positive control, steroid (dexamethasone acetate; Banyu Pharmaceutical) was subcutaneously administered to the eight rats described above in 150 μg/kg which was the clinical dose. As the negative control, PBS was subcutaneously administered to the 10 rats. Each administration was carried out immediately after the administration of carrageenin.\nEach rat was anatomized six hours after the administration of λ-carrageenin. The thoracic cavity of the rats was opened to collect the retained pleural fluid using a 2-ml syringe with probe. After that, inside of the thoracic cavity was washed with 1 ml of saline, and the washing solution was recovered. The volume of the pleural fluid recovered with the syringe was determined, and the number of leukocyte (cell number) in the pleural fluid was determined by an automatic cytometer. The results are be shown in FIG. 8 and FIG. 9, respectively. In the figures, * and ** represent that they have the significant difference with p<0.05 and p<0.01, respectively (wherein \"p\" means a level of significance by the Duncan test)."}}, "note": "Where a name gives a salt, the structure may show the parent alone.", "data": [{"smiles": "CC(=O)N[C@H]1C(O)O[C@H](COS(=O)(=O)O)[C@@H](O[C@@H]2O[C@H](COS(=O)(=O)O)[C@H](O)[C@H](O)[C@H]2O)[C@@H]1O", "note": "(stereo partly drawn) [keratan sulfate disaccharide (III), Gal(6S)β1-4GlcNAc(6S)]", "values": [{"measurement": "existence of the apoptic body", "setting": "submandibular lymph node", "result": "the scattering of the apoptic body was observed"}]}, {"smiles": "CC(=O)N[C@H]1[C@H](O[C@H]2[C@@H](O)[C@@H](COS(=O)(=O)O)O[C@@H](O[C@H]3[C@H](O)[C@@H](NC(C)=O)C(O)O[C@@H]3COS(=O)(=O)O)[C@@H]2O)O[C@H](COS(=O)(=O)O)[C@@H](O[C@@H]2O[C@H](COS(=O)(=O)O)[C@H](O)[C@H](O)[C@H]2O)[C@@H]1O", "note": "(stereo partly drawn) [keratan sulfate tetrasaccharide (I), Gal(6S)β1-4GlcNAc(6S)β1-3Gal(6S)β1-4GlcNAc(6S)]", "values": [{"measurement": "number of leukocyte in pleural fluid (FIG. 9)", "setting": "carrageenin pleurisy; 10 mg/kg and 20 mg/kg s.c.", "result": "significantly less than that in the negative control group, and dose-dependent decrease was observed"}, {"measurement": "volume of pleural fluid (FIG. 8)", "setting": "carrageenin pleurisy; 10 mg/kg s.c.", "result": "significantly less than that in the negative control group"}, {"measurement": "volume of pleural fluid (FIG. 8), dose comparison", "setting": "carrageenin pleurisy; 10 mg/kg vs 20 mg/kg s.c.", "result": "almost same as that in the keratan sulfate tetrasaccharide (I) 20 mg/kg administered group"}]}]}
